This is an account of results in patent US10081662B2, “Modified relaxin B chain peptides” (The Florey Institute of Neuroscience and Mental Health, priority 2014, dated 2018).

Peptide text beside a SMILES is read from it.

Data set [1] can be described thus: Solubility of relaxin B chain peptides in aqueous solution.
Data set [2] has as its target T1, RXFP1 (Homo sapiens, UniProt Q9HBX9).
T1 construct: expressed in transfected cells; host or cells: HEK-293T
T1 sequence (Q9HBX9 1-757): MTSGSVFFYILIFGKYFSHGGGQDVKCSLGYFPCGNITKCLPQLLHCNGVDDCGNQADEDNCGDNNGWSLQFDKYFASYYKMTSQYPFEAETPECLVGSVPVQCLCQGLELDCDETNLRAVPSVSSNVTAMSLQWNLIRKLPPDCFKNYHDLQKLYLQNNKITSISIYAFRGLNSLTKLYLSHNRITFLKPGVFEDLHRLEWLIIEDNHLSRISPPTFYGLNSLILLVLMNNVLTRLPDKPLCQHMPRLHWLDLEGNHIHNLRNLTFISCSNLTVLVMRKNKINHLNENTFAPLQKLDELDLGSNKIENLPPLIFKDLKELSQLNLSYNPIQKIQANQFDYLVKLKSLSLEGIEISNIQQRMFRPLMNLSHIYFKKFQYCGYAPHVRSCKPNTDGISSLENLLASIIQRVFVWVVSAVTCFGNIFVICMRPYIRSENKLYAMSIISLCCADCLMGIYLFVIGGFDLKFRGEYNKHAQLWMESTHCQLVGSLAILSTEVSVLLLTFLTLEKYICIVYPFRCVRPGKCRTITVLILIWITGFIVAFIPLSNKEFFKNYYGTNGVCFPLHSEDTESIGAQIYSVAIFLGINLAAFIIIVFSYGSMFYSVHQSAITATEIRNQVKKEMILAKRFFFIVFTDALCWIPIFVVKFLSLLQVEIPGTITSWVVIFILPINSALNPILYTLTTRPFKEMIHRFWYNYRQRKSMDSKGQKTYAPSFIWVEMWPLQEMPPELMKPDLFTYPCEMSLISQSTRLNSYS
As to the kind of experiment: cAMP reporter gene assay (pCRE β-galactosidase) in HEK-293T cells transfected with RXFP1. As to conditions: HEK-293T cells co-transfected with RXFP1 and pCRE β-galactosidase reporter; n ≥ 3; read-out: RXFP1 cAMP pEC50 (converted). It is filed as cell-based. How it is done:
The ability of the relaxin-2 B chain peptide derivatives generated in Example 1 to stimulate cAMP response was also evaluated, using a cAMP reporter gene assay as described previously (Scott et al., 2006, J Biol Chem. 281, 34942-34954). HEK-293T cells co-transfected with either RXFP1 or RXFP2, or 7BP cells, and a pCRE β-galactosidase reporter plasmid were plated in 96-well plates. After 24 hours, the co-transfected cells were incubated with increasing concentrations of peptides in parallel to 10 nM of H2 relaxin or INSL3 for RXFP1- or RXFP2-transfected cells respectively. The amount of cAMP-driven β-galactosidase expression in each well was assessed with a colorimetric assay measuring absorbance at 570 nm on a microplate spectrophotometer. Ligand-induced cAMP stimulation was expressed as a percentage of maximal response of H2 relaxin or INSL3 for RXFP1 and RXFP2 cells respectively. Each data point was measured in triplicate and each experiment conducted independently at least three separate times. Statistical differences in pEC50 values were analyzed using one-way ANOVA coupled to Newman Keul's multiple comparison test for multiple group comparisons in GraphPad Prism 6.

Data set [3] addresses T2, fusion protein comprising the extracellular domain of RXFP1 and the transmembrane domain of CD8 (7BP cells) (Homo sapiens, UniProt Q9HBX9).
T2 construct: the extracellular domain of RXFP1 and the transmembrane domain of CD8; expressed in transfected cells
T2 sequence (Q9HBX9 1-409 limits assumed): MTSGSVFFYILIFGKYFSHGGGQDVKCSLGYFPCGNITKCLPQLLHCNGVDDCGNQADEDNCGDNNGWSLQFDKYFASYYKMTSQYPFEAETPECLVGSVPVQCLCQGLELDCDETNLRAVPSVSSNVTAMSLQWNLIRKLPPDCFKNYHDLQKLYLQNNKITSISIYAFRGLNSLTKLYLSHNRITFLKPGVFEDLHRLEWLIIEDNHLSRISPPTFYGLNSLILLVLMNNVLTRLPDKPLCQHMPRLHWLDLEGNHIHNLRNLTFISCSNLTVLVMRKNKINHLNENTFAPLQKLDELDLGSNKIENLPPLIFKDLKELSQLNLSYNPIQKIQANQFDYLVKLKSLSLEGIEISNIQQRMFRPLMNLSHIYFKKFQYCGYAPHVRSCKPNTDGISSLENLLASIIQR
Briefly: Eu-labelled H2 relaxin competition binding to 7BP cells. As to conditions: 7BP cells; competition with Eu-labelled H2 relaxin; n ≥ 3; read-out: 7BP Eu-H2 pKi (converted).

The target in data set [4] is T1, RXFP1. Briefly: Eu-labelled H2 relaxin competition binding, whole HEK-293T cells stably transfected with RXFP1. As to conditions: HEK-293T cells stably transfected with RXFP1; competition with Eu-labelled H2 relaxin; mean ± S.E; n ≥ 3; read-out: RXFP1 Eu-H2 pKi (converted). On the procedure: Human embryonic kidney (HEK-293T) cells stably transfected with RXFP1 were cultured in RPMI 1640 medium supplemented with 10% fetal calf serum, 100 μg/ml penicillin, 100 μg/ml streptomycin and 2 mM L-glutamine and plated into 96-well pre-coated with poly-L-lysine for whole cell binding assays. Competition binding experiments were conducted with Eu^3+-labelled H2 relaxin (as per Shabanpoor et al., 2012, Biochem Biophys Res Commun. 420, 253-256) in the absence or presence of increasing concentrations of unlabelled relaxin-2 B chain derivatives. Nonspecific binding was determined with an excess of unlabelled peptides (500 nM H2 relaxin). Fluorescent measurements were recorded at an excitation wavelength of 340 nm and emission of 614 nm on a Victor plate reader (Perkin-Elmer Inc.). […] Statistical differences in pIC50 values were analyzed using one-way analysis of variance coupled to Newman Keul's multiple comparison test for multiple group comparisons in GraphPad Prism 6.

In the case of `CC[C@H](C)[C@H](NC(=O)[C@H](C)NC(=O)[C@@H](NC(=O)[C@H](CCC(N)=O)NC(=O)[C@H](C)NC(=O)[C@H](CCCNC(=N)N)NC(=O)[C@@H](NC(=O)[C@H](CC(C)C)NC(=O)[C@H](CCC(=O)O)NC(=O)[C@H](CCCNC(=N)N)NC(=O)CNC(=O)[C@H](CS)NC(=O)[C@H](CC(C)C)NC(=O)[C@H](CCCCN)NC(=O)[C@@H](NC(=O)[C@@H](NC(=O)[C@H](CCC(=O)O)NC(=O)[C@H](CCC(=O)O)NC(=O)[C@H](CCSC)NC(=O)[C@H](Cc1c[nH]c2ccccc12)NC(=O)[C@H](CO)NC(=O)[C@@H](N)CC(=O)O)C(C)C)[C@@H](C)CC)C(C)C)[C@@H](C)CC)C(=O)N[C@@H](CS)C(=O)NCC(=O)N[C@@H](CCSC)C(=O)N[C@@H](CO)C(=O)N[C@H](C(=O)N[C@@H](Cc1c[nH]c2ccccc12)C(=O)N[C@@H](CO)C(N)=O)[C@@H](C)O` [H2 B chain], the “Solubility at concentration 4 mg/ml” value in data set [1] (4 mg/ml, FIG. 1) is reported as “insoluble”. Also, the “Aqueous solubility (in words)” value in data set [1] (aqueous solution) is reported as “insoluble in aqueous solution”.

Regarding `CC[C@H](C)[C@H](NC(=O)[C@H](C)NC(=O)[C@@H](NC(=O)[C@H](CCC(N)=O)NC(=O)[C@H](C)NC(=O)[C@H](C)NC(=O)[C@@H](NC(=O)[C@H](CC(C)C)NC(=O)[C@H](CCC(=O)O)NC(=O)[C@H](CCCNC(=N)N)NC(=O)CNC(=O)[C@H](CO)NC(=O)[C@H](CC(C)C)NC(=O)[C@H](CCCCN)NC(=O)[C@@H](NC(=O)[C@@H](NC(C)=O)C(C)C)[C@@H](C)CC)C(C)C)[C@@H](C)CC)C(=O)N[C@@H](CO)C(=O)NCC(=O)N[C@@H](CCSC)C(=O)N[C@@H](CO)C(=O)N[C@H](C(=O)N[C@@H](Cc1c[nH]c2ccccc12)C(=O)N[C@@H](CO)C(=O)N[C@@H](CCCCN)C(=O)N[C@@H](CCCNC(=N)N)C(=O)N[C@@H](CO)C(=O)N[C@@H](CC(C)C)C(N)=O)[C@@H](C)O` [R17A (AcB7-33 C11.23S)] (Ac-VIKLSGRELVAAQIAISGMSTWSKRSL-NH2), the EC50 at RXFP1 [2] was more than 10 µM. Further, the Ki in data set [3] was 977 nM; at RXFP1 [4] it was more than 10 µM.
